Measurements from ChEMBL document CHEMBL3751701, “Class I and Class II Lanthipeptides Produced by Bacillus spp” (2015).
Values after ≈ are worked out from the molar mass of the structure shown. One block for each compound: values may come before it.

Columns and labels:
Kocuria rhizophila = experiment: Antibacterial activity against Micrococcus luteus ATCC 9341 by microdilution method; assay type: functional
Staphylococcus aureus [1] = experiment: Antibacterial activity against methicillin-resistant Staphylococcus aureus ATCC 43300 by microdilution method; assay type: functional
Enterococcus faecalis [2] = experiment: Antibacterial activity against Enterococcus faecalis ATCC 29212 by microdilution method; assay type: functional
Enterococcus faecalis [3] = experiment: Antibacterial activity against Enterococcus faecalis ATCC 51299 by microdilution method; assay type: functional
Staphylococcus aureus [4] = experiment: Antibacterial activity against Staphylococcus aureus ATCC 29213 by microdilution method; assay type: functional
[5] = tested on: Staphylococcus epidermidis; experiment: Antibacterial activity against Staphylococcus epidermidis NCTC 11047 after 18 to 20 hrs by agar well diffusion method; assay type: functional
Enterococcus faecium [6] = experiment: Antibacterial activity against vancomycin-resistant Enterococcus faecium 7131121 after 18 to 20 hrs by agar well diffusion method; assay type: functional
Staphylococcus aureus [7] = experiment: Antibacterial activity against Staphylococcus aureus SH1000 after 18 to 20 hrs by agar well diffusion method; assay type: functional
Staphylococcus aureus [8] = experiment: Antibacterial activity against Staphylococcus aureus SG511 after 18 hrs by broth microdilution method; assay type: functional; settings: SG511, 18 h
Staphylococcus aureus [9] = experiment: Antibacterial activity against Staphylococcus aureus 137/93A after 18 hrs by broth microdilution method; assay type: functional
Staphylococcus aureus [10] = experiment: Ratio of MIC for Staphylococcus aureus 137/93A to MIC for Staphylococcus aureus SG511; assay type: functional
Micrococcus luteus = experiment: Antibacterial activity against Micrococcus luteus ATCC 4698 after 18 to 20 hrs by agar well diffusion method; assay type: functional; settings: NCTC 2665
Staphylococcus aureus [11] = experiment: Antibacterial activity against methicillin-resistant Staphylococcus aureus R33 after 18 to 20 hrs by agar well diffusion method; assay type: functional
[12] = Ratio of MIC for Enterococcus faecalis ATCC 29212 to MIC for Enterococcus faecium ATCC 19579; assay type: functional
Staphylococcus aureus [13] = experiment: Antibacterial activity against Staphylococcus aureus 137/93G after 18 hrs by broth microdilution method; assay type: functional
Enterococcus faecium [14] = experiment: Antibacterial activity against Enterococcus faecium ATCC 19579 after 18 to 20 hrs by agar well diffusion method; assay type: functional
Streptococcus pneumoniae = experiment: Antibacterial activity against Streptococcus pneumoniae BAA-255 after 18 to 20 hrs by agar well diffusion method; assay type: functional
Enterococcus faecalis [15] = experiment: Antibacterial activity against Enterococcus faecalis ATCC 29212 after 18 to 20 hrs by agar well diffusion method; assay type: functional
Bacillus subtilis [16] = experiment: Antibacterial activity against Bacillus subtilis BSn5 after 120 mins by agar well diffusion method; assay type: functional; settings: BSn5, 2 h
Bacillus cereus = experiment: Antibacterial activity against Bacillus cereus UW85 after 120 mins by agar well diffusion method; assay type: functional; settings: UW85, 2 h
Bacillus thuringiensis [17] = experiment: Antibacterial activity against Bacillus thuringiensis BMB171 after 120 mins by agar well diffusion method; assay type: functional; settings: BMB171, 2 h
Bacillus pumilus = experiment: Antibacterial activity against Bacillus pumilus SCG I after 120 mins by agar well diffusion method; assay type: functional; settings: 2 h
Microbacterium = experiment: Antibacterial activity against Microbacterium Pri2 after 120 mins by agar well diffusion method; assay type: functional; settings: Pri2, 2 h
Bacillus subtilis [18] = experiment: Antibacterial activity against Bacillus subtilis 168 after 120 mins by agar well diffusion method; assay type: functional; settings: subsp. subtilis str. 168, 2 h
Bacillus thuringiensis [19] = experiment: Antibacterial activity against Bacillus thuringiensis YBT-1518 after 120 mins by agar well diffusion method; assay type: functional; settings: YBT-1518, 2 h
Enterococcus faecalis [20] = experiment: Antibacterial activity against Enterococcus faecalis Bom3 after 120 mins by agar well diffusion method; assay type: functional; settings: Bom3, 2 h
Staphylococcus sciuri = experiment: Antibacterial activity against Staphylococcus sciuri Bom1 after 120 mins by agar well diffusion method; settings: Bom1, 2 h
Bacillus firmus = experiment: Antibacterial activity against Bacillus firmus BCRC 11944 after 120 mins by agar well diffusion method; assay type: functional; settings: Cytobacillus firmus, BCRC 11944, 2 h

SMILES: C=C(NC(=O)[C@H](NC(=O)[C@@H](CCCCN)NC(=O)[C@@H]1CSC(C)C2NC(=O)[C@@H]([C@H](C)CC)NC(=O)C(NC(=O)[C@@H](CCC(N)=O)NC(=O)[C@@H](CC(C)C)NC(=O)[C@@H](Cc3ccccc3)NC(=O)[C@@H]3CSC(C)C(NC(=O)[C@H](NC(=O)[C@@H]4CSC(C)C(NC(=O)[C@H]5CSC[C@@H](NC(=O)[C@@H](CCCCN)NC(=O)[C@H](N)Cc6c[nH]c7ccccc67)C(=O)N[C@H](CCC(=O)O)C(=O)NC(=C)C(=O)N[C@H](C(C)C)C(=O)N5)C(=O)N5CCC[C@@H]5C(=O)NCC(=O)N4)C(C)C)C(=O)NCC(=O)N[C@@H](CC(C)C)C(=O)N[C@@H](CC(C)C)C(=O)N[C@H](CCC(N)=O)C(=O)N/C(=C\C)C(=O)N3)C(C)SC[C@@H](NC2=O)C(=O)N[C@H](CC(N)=O)C(=O)N1)[C@H](C)CC)C(=O)N[C@@H](CCCCN)C(=O)O (stereo partly drawn)
MIC (Kocuria rhizophila): 1.16 µM (≈ 3.89 µg/mL)
MIC (Staphylococcus aureus [1]): 2.32 µM (≈ 7.77 µg/mL)
MIC (Enterococcus faecalis [2]): 4.84 µM (≈ 16.2 µg/mL)
MIC (Enterococcus faecalis [3]): 2.32 µM (≈ 7.77 µg/mL)
MIC (Staphylococcus aureus [4]): 1.16 µM (≈ 3.89 µg/mL)

SMILES: C=C1NC(=O)C2NC(=O)[C@H](CC(C)C)NC(=O)C(NC(=O)[C@@H]3CSC(C)[C@H](NC(=O)[C@H](Cc4ccccc4)NC(=O)C4NC(=O)[C@@H](N)CSC4C)C(=O)N[C@@H](CC(C)C)C(=O)N4CCC[C@H]4C(=O)NCC(=O)NCC(=O)NCC(=O)NCC(=O)N[C@@H](C(C)C)C(=O)N3)C(C)SC[C@@H](NC(=O)[C@H](CCC(=O)O)NC1=O)C(=O)N[C@@H]([C@H](C)CC)C(=O)N/C=C/SC2C (stereo partly drawn)
MIC [5]: 8.94 µM (≈ 16.3 µg/mL)
MIC (Enterococcus faecium [6]): 35.1 µM (≈ 64 µg/mL)
MIC (Staphylococcus aureus [7]): 17.5 µM (≈ 32 µg/mL)
MIC (Staphylococcus aureus [8]): 0.548 µM (≈ 1 µg/mL)
MIC (Staphylococcus aureus [9]): 19.2 µM (≈ 35 µg/mL)
Ratio (Staphylococcus aureus [10]): 35
MIC (Micrococcus luteus): 0.657 µM (≈ 1.2 µg/mL)
MIC (Staphylococcus aureus [11]): 17.5 µM (≈ 32 µg/mL)
Ratio [12]: 2
MIC (Staphylococcus aureus [13]): 16.4 µM (≈ 30 µg/mL)
MIC (Enterococcus faecium [14]): 17.5 µM (≈ 32 µg/mL)
MIC (Streptococcus pneumoniae): 1.1 µM (≈ 2 µg/mL)
MIC (Enterococcus faecalis [15]): 35.1 µM (≈ 64 µg/mL)

MIC (Bacillus subtilis [16]): 5.2 µM (≈ 14.5 µg/mL)
MIC (Bacillus cereus): 7.8 µM (≈ 21.7 µg/mL)
MIC (Bacillus thuringiensis [17]): 1.3 µM (≈ 3.62 µg/mL)
MIC (Bacillus pumilus): 0.65 µM (≈ 1.81 µg/mL)
MIC (Microbacterium): 5.2 µM (≈ 14.5 µg/mL)
MIC (Bacillus subtilis [18]): 5.2 µM (≈ 14.5 µg/mL)
MIC (Bacillus thuringiensis [19]): 1.3 µM (≈ 3.62 µg/mL)
MIC (Enterococcus faecalis [20]): 2.6 µM (≈ 7.25 µg/mL)
MIC (Staphylococcus sciuri): 1.95 µM (≈ 5.44 µg/mL)
MIC (Bacillus firmus): 0.326 µM (≈ 0.909 µg/mL)
SMILES: C=C1NC(=O)[C@@H]2CSC(C)C(NC(=O)[C@@H]3CSC(C)C4NC(=O)CNC(=O)C(NC(=O)[C@H](CCCCN)NC(=O)[C@@H]5CSC[C@H](NC(=O)[C@@H](NC(=O)[C@H](CCCCN)NC(=O)[C@@H](NC(=O)[C@@H](NC(=O)/C(=C/C)NC(=O)/C(=C\C)NC(=O)[C@H](Cc6c[nH]c7ccccc67)NC(=O)C(=O)CC)[C@@H](C)CC)C(C)C)C(C)C)C(=O)N[C@@H](CCCCN)C(=O)N[C@@H](C)C(=O)N[C@@H](C(C)C)C(=O)N5)C(C)SC[C@H](NC4=O)C(=O)N[C@@H]([C@@H](C)CC)C(=O)N3)C(=O)N/C(=C\C)C(=O)N[C@@H](CSC[C@@H](C(=O)N[C@@H](CCCCN)C(=O)O)NC(=O)[C@H](CC(N)=O)NC1=O)C(=O)N2 (stereo partly drawn)
